Assays:
[1] = test system: mouse pancreatic β cell line MIN6; test: Insulin secretion from mouse pancreatic β cell line MIN6, Part 1 (Example 8); format: cell-based; details: MIN6 cells, 20 minutes
Protocol: MIN6 cells (2×10^5 cells) were seeded on a 24-well plate, and cultured for 2 days in a DMEM containing 10% FCS. The medium was aspirated, and the cells were washed with KRB-HEPES (140 mmol/L NaCl, 3.6 mmol/L KC1, 0.5 mmol/L NaH2PO4, 0.5 mmol/L MgSO4, 1.5 mmol/L CaCl2, 10 mmol/L Hepes, 2 mmol/L NaHCO3, 0.1% BSA, pH7.4). After 2.8 mmol/L glucose-containing KRB-HEPES (1 ml) was added, the whole was incubated at 37° C. for 30-60 minutes in the presence of 5% CO2.
After the buffer was aspirated, one of the four compounds obtained by the screening in Example 7, i.e., 2-(pyridine-4-yl)ethyl thiobenzoate, in the form of a solution (0.5 ml) prepared by diluting the compound with 2.8 mmol/L or 16.8 mmol/L glucose-containing KRB-HEPES, was added, and the whole was incubated at 37° C. for 20 minutes in the presence of 5% CO2. A supernatant was used for measuring an amount of insulin secreted.
(§1) A commercially available insulin radioimmunoassay kit (Phadeseph insulin; Pharmacia Upjohn) was used for the measurement of the amount of insulin secreted.

SD rats = test: Glucose tolerance test for SD rats (Example 9); format: in vivo, rat; details: 100 mg/kg intraperitoneally 5 minutes before 2 g/kg oral glucose, 30 minutes after glucose, p<0.05 vs control
Protocol: (§2) SD rats (4 weeks old; CLEA JAPAN) were forced to fast overnight, and 2 g/kg of glucose was orally administered. 100 mg/kg of 2-(pyridine-4-yl)ethyl thiobenzoate (LT-1 Z 0059519) had been intraperitoneally administered 5 minutes before the glucose administration. An appropriate amount of blood was taken 0 minute, 30 minutes, 60 minutes, and 120 minutes after the glucose administration, and used for the measurement of a blood glucose level and a concentration of plasma insulin.
(§3) For measuring the blood glucose level, a supernatant obtained by mixing blood and 0.33 mol/L perchloric acid (blood:0.33 mol/L perchloric acid=1:10) and centrifuging the mixture (3000×g, 10 minutes, 4° C.) was used. For measuring the concentration of plasma insulin, a supernatant obtained by centrifuging blood (3000×g, 10 minutes, 4° C.) was used. Further, Glucose C test Wako (Wako) was used in the measurement of the blood glucose level, and a rat insulin assay system (Amersham) was used in the measurement of the concentration of plasma insulin.
FIG. 1 illustrates a time course of the concentration of plasma insulin (unit=ng/mL) after the oral administration of glucose, and FIG. 2 illustrates a time course of the blood glucose level (unit=mg/dL) after the oral administration of glucose. […]

GK (Goto-Kakizaki) rats = test: Glucose tolerance test for GK rats, type II diabetes model (Example 9); format: in vivo, rat; details: 100 mg/kg orally administered, 2 g/kg oral glucose, 30 and 60 minutes after glucose
Protocol: as §2, §3
Then, a glucose tolerance test for GK (Goto-Kakizaki) rats (type II diabetes models with incomplete insulin secretion; 7 weeks old; Charles River Japan) by one oral dose was carried out. […]

[2] = target: T1, polypeptide consisting of the amino acid sequence of SEQ ID NO: 2 (Homo sapiens, UniProt Q8TDV5); test: CRE-luciferase reporter screening in transfected 293-EBNA cells (Example 7); format: cell-based; details: 293-EBNA cells transfected with pEF-BOS-NA and pCRE-Luc; 5-6 hours incubation; read-out: EC50 value (increase of reporter activity)
T1 construct: expressed in transfected cells; host or cells: 293-EBNA cells, transient transfection with plasmid pEF-BOS-NA
T1 sequence (Q8TDV5 1-335): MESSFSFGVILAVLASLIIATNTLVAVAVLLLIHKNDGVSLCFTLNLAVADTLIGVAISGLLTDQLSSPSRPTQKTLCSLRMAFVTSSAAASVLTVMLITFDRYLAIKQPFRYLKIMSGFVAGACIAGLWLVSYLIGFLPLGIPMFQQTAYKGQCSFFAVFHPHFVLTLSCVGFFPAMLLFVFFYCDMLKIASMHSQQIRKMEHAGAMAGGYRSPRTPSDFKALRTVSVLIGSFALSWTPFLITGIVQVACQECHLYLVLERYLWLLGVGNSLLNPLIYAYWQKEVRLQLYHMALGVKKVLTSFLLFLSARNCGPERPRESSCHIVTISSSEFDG
Protocol: (§4) The pEF-BOS-NA plasmid used in Example 6 was also used in the present Example.
293-EBNA cells, (1×10^4 cells/well) were seeded on a 96-well plate coated with collagen, and cultured overnight in a Dulbecco modified Eagles' medium (DMEM) containing 10% fetal calf serum (FCS). Then, a transfection reagent (LIPOFECTAMINE 2000; GIBCO BRL) was used to transfect 0.01 ng of a plasmid pEF-BOS-NA or a plasmid pEF-BOS (negative control vector) and 5 ng of a pCRE-Luc vector (CLONTECH) to the cells. […] After the medium was aspirated, the cells were lysed with a cell lysing solution (cell lysis buffer LCβ; Toyo Ink Mfg.). A luciferase activity of the lysate was measured by a commercially available measuring kit (PicaGene Luminescent kit; Toyo Ink Mfg.) and a measuring apparatus (ML3000 microtiter plate luminometer; Dynatech Laboratories).

[3] = test system: mouse pancreatic β cell line MIN6; test: Insulin secretion from mouse pancreatic β cell line MIN6, Part 2 (Example 12); format: cell-based; details: MIN6 cells, 16.8 mmol/L glucose, 30 minutes
Protocol: MIN6 cells (2.5×10^5 cells) were seeded on a 24-well plate coated with collagen, and cultured for 2 days in a DMEM containing 10% FCS (Cat. No. 11995-065; GIBCO BRL). The medium was aspirated, and 0.4 mL of a glucose-free DMEM containing 10% FCS (Cat. No. 11966-025; GIBCO BRL) was added. The whole was incubated at 37° C. for 2 hours in the presence of 5% CO2.
After the medium was aspirated, 0.5 mL of a solution of L-α-lysophosphatidylcholine oleoyl, the compound selected by the screening method in Example 10, diluted with 2.8 mmol/L or 16.8 mmol/L glucose-containing DMEM (Cat. No. 11966-025; GIBCO BRL) was added, and the whole was incubated at 37° C. for 30 minutes in the presence of 5% CO2. A supernatant was used for measuring an amount of insulin secreted.
as §1

[4] = target: T1, polypeptide consisting of the amino acid sequence of SEQ ID NO: 2; test: Intracellular cAMP amount in transfected 293-EBNA cells, enzymeimmunoassay (Example 11); format: cell-based; details: 293-EBNA cells transfected with pEF-BOS-NA; 1 mmol/L IBMX; 30 minutes
Protocol: as §4
293-EBNA Cells (1×10^4 cells/well) were seeded on a 96-well plate coated with collagen, and cultured for 24 hours. Then, a transfection reagent (LIPOFECTAMINE 2000; GIBCO BRL) was used to transfect 3 ng of a plasmid pEF-BOS-NA or a plasmid pEF-BOS (negative control vector) to the cells. The transfected cells were further cultured for 20 hours, and the medium was aspirated. After 80 μL of 1 mmol/L IBMX (3-isobutyl-1-methylxanthine)/0.1% BSA/DMEM was added, the whole was incubated at 37° C. for 10 minutes in the presence of 5% CO2. Then, a test compound diluted with 20 μL of 1 mmol/L IBMX/0.1% BSA/DMEM was added, and the whole was incubated for 30 minutes. After the medium was aspirated, the resulting cells were used for the measurement of an amount of cAMP. A commercially available cAMP enzymeimmunoassay system (cyclic AMP kit; Nihon Schering) was used to measure the amount of cAMP.

[5] = target: T1, polypeptide consisting of the amino acid sequence of SEQ ID NO: 2; test: CRE-luciferase reporter screening in transfected 293-EBNA cells (Example 10); format: cell-based; details: 293-EBNA cells transfected with pEF-BOS-NA and pCRE-Luc; 6 hours; specific versus pEF-BOS control vector
Protocol: as §4
293-EBNA cells (7×10^4 cells/well) were seeded on a 24-well plate coated with collagen, and cultured overnight in a Dulbecco modified Eagles' medium (DMEM) containing 1% fetal calf serum (FCS). Then, a transfection reagent (LIPOFECTAMINE 2000; GIBCO BRL) was used to transfect 0.1 ng of a plasmid pEF-BOS-NA or a plasmid pEF-BOS (negative control vector) and 20 ng of a pCRE-Luc vector (CLONTECH) to the cells. The transfected cells were further cultured for 18-20 hours, and then a test compound diluted with a medium containing 0.1% BSA was added, and the whole was incubated at 37° C. for 6 hours in the presence of 5% CO2. After the medium was aspirated, the cells were lysed with a cell lysing solution (cell lysis buffer LCβ; Toyo Ink Mfg.). A luciferase activity of the lysate was measured by a commercially available measuring kit (PicaGene Luminescence kit; Toyo Ink Mfg.) and a measuring apparatus (ML3000 microtiter plate luminometer; Dynatech Laboratories).
L-α-lysophosphatidylcholine oleoyl (L1881; SIGMA), a biocomponent, could be obtained.

O=C(SCCc1ccncc1)c1ccccc1
amount of insulin secreted ([1]; 2.8 mmol/L glucose): did not cause an increase
amount of insulin secreted ([1]; 16.8 mmol/L glucose): caused an increase
concentration of plasma insulin (SD rats): significant increase
increase of the blood glucose level by the glucose administration (SD rats): significantly suppressed
increase of the blood glucose level by the glucose administration (GK (Goto-Kakizaki) rats): significantly suppressed
EC50 [2]: 3.2 µM

CCCCCCCC/C=C\CCCCCCCC(=O)OC[C@@H](O)COP(=O)([O-])OCC[N+](C)(C)C [L-α-lysophosphatidylcholine oleoyl]
amount of insulin secreted [3]: caused an increase
amount of cAMP [4]: exhibited an increase of the amount of cAMP specifically in the cells
reporter activity (luciferase) [5]: increase of a reporter activity specifically in cells

From patent US7662775B2 (Astellas Pharma Inc., priority 2000, dated 2010)
